In US12201601B2, “Treatment for obesity” (Axsome Malta Ltd., priority 2013, dated 2025):

Assay: 6-week randomized, double blind, active and placebo-controlled study in adult subjects with major depressive disorder: body weight
Format: in vivo, Humans
Procedure: A 6-week randomized, double blind, parallel group, active and placebo-controlled study was carried out to assess the efficacy of R228060 in adult subjects with major depressive disorder (MDD). Body weight was monitored throughout the study.

[1] = Paroxetine (N = 117), baseline to endpoint
[2] = Paroxetine group, baseline to endpoint

**Q.** Which “Subjects with weight Decrease ≥7%” value [1] does the source give for `Fc1ccc([C@@H]2CCNC[C@H]2COc2ccc3c(c2)OCO3)cc1` [Paroxetine, reference compound] here?
**A.** 0 n (%)

**Q.** What about the “Subjects with weight Increase <7%” value [1] of the same compound?
**A.** 54 (46.2) n (%)

**Q.** What about the “Subjects with weight Increase ≥7%” value [1] of the same compound?
**A.** 1 (0.9) n (%)

**Q.** What about the “Subjects with weight No change/decrease <7%” value [1] of the same compound?
**A.** 62 (53.0) n (%)

**Q.** And the “Weight, End point, Mean” value (Paroxetine group, 6-week study)?
**A.** 83.2 kg

**Q.** What about the “Weight, End point, Median” value (Paroxetine group, 6-week study) of the same compound?
**A.** 79.8 kg

**Q.** And the Mean weight gain [2]?
**A.** 0.1 kg

**Q.** And the “Weight, Change from Baseline, Mean” value [2]?
**A.** 0.1 kg

**Q.** And the “Weight, Change from Baseline, Median” value [2]?
**A.** 0.0 kg

**Q.** And the “Mean change from baseline to endpoint in BMI” value (paroxetine)?
**A.** 0
